From patent US20260374754A1, “N-((ISOQUINOLIN-6-YL)METHYL)-1H-PYRAZOLE-4-CARBOXAMIDE DERIVATIVES AS PLASMA KALLIKREIN INHIBITORS FOR THE TREATMENT OF HEREDITARY ANGIODEMA” (Takeda Pharmaceutical Company Limited, priority 2022, published 2026)
Counter-ions that a name gives are not always drawn. Like-named read-outs stand apart in the source and are kept apart here.

Biological target: human activated kallikrein enzyme (Homo sapiens, UniProt P03952)
Assay: Inhibition of human activated plasma kallikrein, fluorogenic PFR-AMC substrate, 500 pM enzyme format
Type: biochemical
Conditions: 300 μM PFR-AMC, 30 min preincubation, 10 min room temperature, pH 7.5
Summary of the method: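 Using fluorogenic PFR-AMC at 300 μM, cleavage by 500 pM human activated kallikrein ran 10 min at room temperature, read at 460 nm emission (380 nm excitation). Enzyme and compounds were first preincubated 30 min in 20 mM Tris pH 7.5, 150 mM NaCl, 1 mM EDTA, 0.1% PEG-400, 0.1% Triton X-100.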

[1] = 500 pM activated kallikrein, read-out: Primary Dose Response Assay: Average EC50

Chain of human activated kallikrein enzyme (P03952 391-638 limits assumed): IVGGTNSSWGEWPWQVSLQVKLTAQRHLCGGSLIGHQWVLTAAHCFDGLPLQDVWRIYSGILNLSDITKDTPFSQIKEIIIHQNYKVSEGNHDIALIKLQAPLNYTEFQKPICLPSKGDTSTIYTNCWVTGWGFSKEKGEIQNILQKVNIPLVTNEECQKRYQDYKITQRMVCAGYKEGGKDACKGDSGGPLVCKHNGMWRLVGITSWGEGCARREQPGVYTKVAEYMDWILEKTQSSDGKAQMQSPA
Chain of human activated kallikrein enzyme (P03952 20-390 partner limits assumed): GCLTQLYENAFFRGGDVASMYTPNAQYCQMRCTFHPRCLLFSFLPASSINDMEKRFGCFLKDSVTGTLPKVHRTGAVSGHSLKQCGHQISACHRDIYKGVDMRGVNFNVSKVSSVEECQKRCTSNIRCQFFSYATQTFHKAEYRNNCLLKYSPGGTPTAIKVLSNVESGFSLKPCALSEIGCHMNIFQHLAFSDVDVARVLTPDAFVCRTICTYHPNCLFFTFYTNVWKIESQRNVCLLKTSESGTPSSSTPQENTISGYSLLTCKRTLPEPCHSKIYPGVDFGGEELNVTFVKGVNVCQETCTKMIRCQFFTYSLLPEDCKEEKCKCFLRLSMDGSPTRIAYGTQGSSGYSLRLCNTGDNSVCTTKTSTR

Structure (SMILES) | EC50 [1] | EC50 (Primary Dose Response Assay: Average EC50, 500 pM activated kallikrein)
Cc1cc2c(N)nccc2c(C)c1CNc1cc(NCc2ccc3nccc(C)c3c2)ncn1 [Example 324, N^4-((1-amino-5,7-dimethylisoquinolin-6-yl)methyl)-N^6-((4-methylquinolin-6-yl)methyl)pyrimidine-4,6-diamine] | 0.001 to 0.01 µM | 
CCOC(=O)Nc1nccc2c(C)c(CNC(=O)c3cnn(Cc4ccc5ncc(Cl)cc5c4)c3)c(C)cc12 [Example 132, ethyl (6-((1-((3-chloroquinolin-6-yl)methyl)-1H-pyrazole-4-carboxamido)methyl)-5,7-dimethylisoquinolin-1-yl)carbamate] | 0.01 to 0.1 µM | 
Cc1cc2c(N)nccc2c(C)c1CN1C(=O)c2ncc(NCc3cn4cc(C5CC5)ccc4n3)cc21 [Example 496, 7-((1-amino-5,7-dimethylisoquinolin-6-yl)methyl)-4-(((6-cyclopropylimidazo[1,2-a]pyridin-2-yl)methyl)amino)-2,7-diazabicyclo[4.2.0]octa-1,3,5-trien-8-one] | 0.1 to 1 µM | 
Cc1cc2c(N)nccc2c(C)c1CNC(=O)c1cnn(Cc2ccc(C(F)(F)C(=O)N(C)C)cc2)c1 [Example 23, N-((1-amino-5,7-dimethylisoquinolin-6-yl)methyl)-1-(4-(2-(dimethylamino)-1,1-difluoro-2-oxoethyl)benzyl)-1H-pyrazole-4-carboxamide] | 0.01 to 0.1 µM | 
Cc1cc2c(N)nccc2c(C)c1CNC(=O)c1cnn(Cc2cnc3c(C)cccc3c2)c1 [Example 72, N-((1-amino-5,7-dimethylisoquinolin-6-yl)methyl)-1-((8-methylquinolin-3-yl)methyl)-1H-pyrazole-4-carboxamide] | < 0.001 µM | 
Cc1cc2c(N)nccc2c(C)c1CNC(=O)c1cnn(Cc2cc3ccccc3s2)c1 [Example 84, N-((1-amino-5,7-dimethylisoquinolin-6-yl)methyl)-1-(benzo[b]thiophen-2-ylmethyl)-1H-pyrazole-4-carboxamide] | 0.001 to 0.01 µM | 
Cc1cc2c(N)nccc2c(C)c1CNC(=O)c1cnn(Cc2cn3cccc(C)c3n2)c1 [Example 54, N-((1-amino-5,7-dimethylisoquinolin-6-yl)methyl)-1-((8-methylimidazo[1,2-a]pyridin-2-yl)methyl)-1H-pyrazole-4-carboxamide] | 0.001 to 0.01 µM | 
Cc1cc2c(N)nccc2c(C)c1CNC(=O)c1cnn(Cc2ccc(CC(=O)O)cc2)c1 [Example 131, 2-(4-((4-(((1-amino-5,7-dimethylisoquinolin-6-yl)methyl)carbamoyl)-1H-pyrazol-1-yl)methyl)phenyl)acetic acid] | 0.1 to 1 µM | 
Cc1cc2c(N)nccc2c(C)c1CN1C(=O)c2ncc(OCc3cn4cc(C5CC5)ccc4n3)cc21 [Example 494, 7-((1-amino-5,7-dimethylisoquinolin-6-yl)methyl)-4-((6-cyclopropylimidazo[1,2-a]pyridin-2-yl)methoxy)-2,7-diazabicyclo[4.2.0]octa-1,3,5-trien-8-one] | > 1 µM | 
Cc1cc2c(N)nccc2c(C)c1CNC(=O)c1cnn(Cc2ccc3c(Br)cccc3c2)c1 [Example 113, N-((1-amino-5,7-dimethylisoquinolin-6-yl)methyl)-1-((5-bromonaphthalen-2-yl)methyl)-1H-pyrazole-4-carboxamide] | 0.001 to 0.01 µM | 
Cc1cc2c(N)nccc2c(C)c1CNc1cc(NCc2ccc(Cn3cccn3)cc2F)cnn1 [Example 385, N^5-(4-((1H-pyrazol-1-yl)methyl)-2-fluorobenzyl)-N^3-((1-amino-5,7-dimethylisoquinolin-6-yl)methyl)pyridazine-3,5-diamine] | < 0.001 µM | 
Cc1cc2c(N)nccc2c(C)c1CNc1cc(NCc2ccc(Cc3ncccc3Cl)cc2)ncn1 [Example 365, N^4-((1-amino-5,7-dimethylisoquinolin-6-yl)methyl)-N^6-(4-((3-chloropyridin-2-yl)methyl)benzyl)pyrimidine-4,6-diamine] | 0.001 to 0.01 µM | 
Cc1cc2c(N)nccc2c(C)c1CNC(=O)c1cnn(Cc2ccc(CC(=O)N(C)C)c(C(F)(F)F)c2)c1 [Example 152, N-((1-amino-5,7-dimethylisoquinolin-6-yl)methyl)-1-(4-(2-(dimethylamino)-2-oxoethyl)-3-(trifluoromethyl)benzyl)-1H-pyrazole-4-carboxamide] | < 0.001 µM | 
Cc1cc2c(N)nccc2c(C)c1CNc1cc(OCc2ccc(Cc3cccn4ccnc34)cc2)cnn1 [Example 444, 6-(((5-((4-(imidazo[1,2-a]pyridin-8-ylmethyl)benzyl)oxy)pyridazin-3-yl)amino)methyl)-5,7-dimethylisoquinolin-1-amine] | < 0.001 µM | 
Cc1cc2c(N)nccc2c(C)c1CNc1cc(OCc2cn3cc(C4CC4)cc(-n4c(C)nnc4C)c3n2)ncn1 [Example 257, 6-(((6-((6-cyclopropyl-8-(3,5-dimethyl-4H-1,2,4-triazol-4-yl)imidazo[1,2-a]pyridin-2-yl)methoxy)pyrimidin-4-yl)amino)methyl)-5,7-dimethylisoquinolin-1-amine] | 0.001 to 0.01 µM | 
C=Cc1cnc2ccc(Cn3cc(C(=O)NCc4c(C)cc5c(N)nccc5c4C)cn3)cc2c1 [Example 123, N-((1-amino-5,7-dimethylisoquinolin-6-yl)methyl)-1-((3-vinylquinolin-6-yl)methyl)-1H-pyrazole-4-carboxamide] | < 0.001 µM | 

Structure (SMILES) | EC50 [1] | EC50 (Primary Dose Response Assay: Average EC50, 500 pM activated kallikrein)
Cc1cc2c(N)nccc2c(C)c1CNc1cc(NCc2ccc(OCC(=O)N3CCCC3)cc2)ncn1 [Example 345, 2-(4-(((6-(((1-amino-5,7-dimethylisoquinolin-6-yl)methyl)amino)pyrimidin-4-yl)amino)methyl)phenoxy)-1-(pyrrolidin-1-yl)ethan-1-one] | < 0.001 µM | 
CCC(c1ccc(CNc2cc(NCc3c(C)cc4c(N)nccc4c3C)ncn2)cc1)n1cccn1 (stereo not shown) [Example I-484, N^4-(4-(1-(1H-pyrazol-1-yl)propyl)benzyl)-N^6-((1-amino-5,7-dimethylisoquinolin-6-yl)methyl)pyrimidine-4,6-diamine] | < 0.001 µM | 
Cc1cc2c(N)nccc2c(C)c1CNc1nccc2cn(Cc3cn4cc(C5CC5)cnc4n3)nc12 [Example 264, 6-(((2-((6-cyclopropylimidazo[1,2-a]pyrimidin-2-yl)methyl)-2H-pyrazolo[3,4-c]pyridin-7-yl)amino)methyl)-5,7-dimethylisoquinolin-1-amine] | < 0.001 µM | 
COc1ccc2cc(CN(C)c3cc(NCc4c(C)cc5c(N)nccc5c4C)ncn3)ccc2c1 [Example 318, N^4-((1-amino-5,7-dimethylisoquinolin-6-yl)methyl)-N^6_((6-methoxynaphthalen-2-yl)methyl)-N^6-methylpyrimidine-4,6-diamine] | 0.1 to 1 µM | 
Cc1cc2c(N)nccc2c(C)c1CNC(=O)c1cnn(Cc2ccc(CC(=O)Nc3ccccc3)cc2)c1 [Example 227, N-((1-amino-5,7-dimethylisoquinolin-6-yl)methyl)-1-(4-(2-oxo-2-(phenylamino)ethyl)benzyl)-1H-pyrazole-4-carboxamide] | 0.01 to 0.1 µM | 
Cc1cc2c(N)nccc2c(C)c1CNC(=O)c1cnn(C(C)c2ccc3ncc(Cl)cc3c2)c1 (stereo not shown) [Example 120, N-((1-amino-5,7-dimethylisoquinolin-6-yl)methyl)-1-(1-(3-chloroquinolin-6-yl)ethyl)-1H-pyrazole-4-carboxamide] | < 0.001 µM | 
Cc1cc2c(N)nccc2c(C)c1CNC(=O)c1cnn(Cc2ccc(CC(=O)N3CCC3)c(Cl)c2)c1 [Example I-473, N-((1-amino-5,7-dimethylisoquinolin-6-yl)methyl)-1-(4-(2-(azetidin-1-yl)-2-oxoethyl)-3-chlorobenzyl)-1H-pyrazole-4-carboxamide] | < 0.001 µM | 
Cc1cc2c(N)nccc2c(C)c1CNc1cc(OCc2ccc3ccccc3c2)cnn1 [Example 252, 5,7-dimethyl-6-(((5-(naphthalen-2-ylmethoxy)pyridazin-3-yl)amino)methyl)isoquinolin-1-amine] | 0.01 to 0.1 µM | 
Cc1cc2c(N)nccc2c(C)c1CNc1cc(NCc2ccc(CC(=O)N(C)C)cc2)ncn1 [Example 375, 2-(4-(((6-(((1-amino-5,7-dimethylisoquinolin-6-yl)methyl)amino)pyrimidin-4-yl)amino)methyl)phenyl)-N,N-dimethylacetamide] |  | < 0.001 µM
Cc1cc2c(N)nccc2c(C)c1CNC(=O)c1cnn(Cc2ccccc2F)c1 [Example 38, N-((1-amino-5,7-dimethylisoquinolin-6-yl)methyl)-1-(2-fluorobenzyl)-1H-pyrazole-4-carboxamide] | > 1 µM | 
Cc1cc2c(N)nccc2c(C)c1CNC(=O)c1cnn(Cc2ccc(C3(C(=O)N4CCCC4)CC3)cc2)c1 [Example 122, N-((1-amino-5,7-dimethylisoquinolin-6-yl)methyl)-1-(4-(1-(pyrrolidine-1-carbonyl)cyclopropyl)benzyl)-1H-pyrazole-4-carboxamide] | < 0.001 µM | 
Cc1cc2c(N)nccc2c(C)c1CNc1cc(OCc2ccc3nc(C)c(C)nc3c2)cnn1 [Example 418, 6-(((5-((2,3-dimethylquinoxalin-6-yl)methoxy)pyridazin-3-yl)amino)methyl)-5,7-dimethylisoquinolin-1-amine, formic acid salt] | < 0.001 µM | 
Cc1cc2c(N)nccc2c(C)c1CNc1cc(OC(C)c2ccc3ncc(Cl)cc3c2)cnn1 (stereo not shown) [Example 420, 6-(((5-(1-(3-chloroquinolin-6-yl)ethoxy)pyridazin-3-yl)amino)methyl)-5,7-dimethylisoquinolin-1-amine formic acid salt] | < 0.001 µM | 
Cc1cc2c(N)nccc2c(C)c1CNC(=O)c1cnn(Cc2cccc(C#N)c2)c1 [Example 94, N-((1-amino-5,7-dimethylisoquinolin-6-yl)methyl)-1-(3-cyanobenzyl)-1H-pyrazole-4-carboxamide] | 0.01 to 0.1 µM | 
Cc1cc2c(N)nccc2c(C)c1CNC(=O)c1cnn(Cc2nc3ccccc3n2C)c1 [Example 75, N-((1-amino-5,7-dimethylisoquinolin-6-yl)methyl)-1-((1-methyl-1H-benzo[d]imidazol-2-yl)methyl)-1H-pyrazole-4-carboxamide] | 0.1 to 1 µM | 
